Assay results published in ChEMBL document CHEMBL1201862, “PubChem BioAssay data set” (2004).
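Cultured in 96-well plates, cells were exposed to test compound for 48 hours across five concentrations. GI50 = concentration required for 50% inhibition of growth.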 Activity calls are given as the source filed them. Rule as the data show it: active = GI50 up to about 1.1 µM and inactive = higher.

Tests used:
Experiment in all cases: growth of human tumour cells (NCI), 48 h
A498 = tested on: A498
COLO 205 = tested on: COLO 205
EKVX = tested on: EKVX
HCT-15 = tested on: HCT-15
IGROV-1 = tested on: IGROV-1
MCF7 = tested on: MCF7
MDA-N = tested on: MDA-N
NCI-H226 = tested on: NCI-H226
NCI-H460 = tested on: NCI-H460
OVCAR-4 = tested on: OVCAR-4
OVCAR-5 = tested on: OVCAR-5
RPMI-8226 = tested on: RPMI-8226
RXF 393 = tested on: RXF 393
SK-MEL-2 = tested on: SK-MEL-2
SN12C = tested on: SN12C
T47D = tested on: T47D
TK-10 = tested on: TK-10
U-251 = tested on: U-251
HT-29 = tested on: HT-29
SK-OV-3 = tested on: SK-OV-3

Compound | GI50 (A498) | GI50 (COLO 205) | GI50 (EKVX) | GI50 (HCT-15) [µM] | GI50 (IGROV-1) | GI50 (MCF7) | GI50 (MDA-N) | GI50 (NCI-H226) | GI50 (NCI-H460) | GI50 (OVCAR-4) | GI50 (OVCAR-5) | GI50 (RPMI-8226) | GI50 (RXF 393) | GI50 (SK-MEL-2) | GI50 (SN12C) | GI50 (T47D) | GI50 (TK-10) | GI50 (U-251) | GI50 (HT-29) | GI50 (SK-OV-3)
CC1=C(C(=O)N[C@@H](Cc2ccccc2)C(=O)O)N2C(=O)[C@@H](NC(=O)[C@@H](N)CC(C)C)[C@H]2SC1 | > 100 µM (inactive) | > 100 µM (inactive) | > 100 µM (inactive) | > 100 | > 100 µM (inactive) | > 100 µM (inactive) | > 100 µM (inactive) | > 100 µM (inactive) | > 100 µM (inactive) | > 100 µM (inactive) | > 100 µM (inactive) | > 100 µM (inactive) | > 100 µM (inactive) | > 100 µM (inactive) | > 100 µM (inactive) | > 100 µM (inactive) | > 100 µM (inactive) | > 100 µM (inactive) |  | 
N=C(N)N/N=C(\c1ccc(Cl)cc1)C1CC1 | 14.4 µM (inactive) | 17.2 µM (inactive) | 23.9 µM (inactive) | 19 | 16.2 µM (inactive) | 17.1 µM (inactive) | 16.1 µM (inactive) | 16.3 µM (inactive) | 15.6 µM (inactive) | 33 µM (inactive) | 17.9 µM (inactive) | 18.5 µM (inactive) | 33.9 µM (inactive) | 18.3 µM (inactive) | 19.1 µM (inactive) | 19.5 µM (inactive) | 16.3 µM (inactive) | 14.2 µM (inactive) | 16.5 µM (inactive) | 27.5 µM (inactive)
CC(NC(=O)NC(C)(C)C)NC(=O)C(N)CC(=O)O (stereo not drawn) | > 100 µM (inactive) | > 100 µM (inactive) | > 100 µM (inactive) | > 100 | > 100 µM (inactive) | > 100 µM (inactive) | > 100 µM (inactive) | > 100 µM (inactive) | > 100 µM (inactive) | > 100 µM (inactive) | > 100 µM (inactive) | > 100 µM (inactive) | > 100 µM (inactive) | > 100 µM (inactive) | > 100 µM (inactive) | > 100 µM (inactive) | > 100 µM (inactive) | > 100 µM (inactive) | > 100 µM (inactive) | 15.8 µM (inactive)
CN(C)CCNC(=O)c1cc([N+](=O)[O-])cc2c1Oc1ccccc1O2 | 25.1 µM (inactive) | 13.7 µM (inactive) | 56.1 µM (inactive) | > 10 | 23.4 µM (inactive) | 23.1 µM (inactive) | 58.2 µM (inactive) | 12.6 µM (inactive) | 4.23 µM (inactive) | 40.6 µM (inactive) | 40.9 µM (inactive) | 18.6 µM (inactive) | 18.2 µM (inactive) | 18.2 µM (inactive) | 25.7 µM (inactive) | 18.5 µM (inactive) | 23.7 µM (inactive) | 29.4 µM (inactive) | 17.3 µM (inactive) | 
Nc1ccccc1CCCC(=O)O | > 100 µM (inactive) | > 100 µM (inactive) |  | > 100 | > 100 µM (inactive) | > 100 µM (inactive) | > 100 µM (inactive) | > 100 µM (inactive) | > 100 µM (inactive) | > 100 µM (inactive) | > 100 µM (inactive) | > 100 µM (inactive) | > 100 µM (inactive) | > 100 µM (inactive) | > 100 µM (inactive) | > 100 µM (inactive) | > 100 µM (inactive) | > 100 µM (inactive) | > 100 µM (inactive) | > 100 µM (inactive)
COC(=O)c1n[nH]c(C)c1/N=N/N(C)CCC#N | 76 µM (inactive) | 13.4 µM (inactive) | 13.7 µM (inactive) | 14.2 | 2.13 µM (inactive) | 7.14 µM (inactive) | 47.5 µM (inactive) | 12.8 µM (inactive) | 14.2 µM (inactive) | 12.9 µM (inactive) |  | 10.2 µM (inactive) | 13.3 µM (inactive) | 23.6 µM (inactive) | 16.5 µM (inactive) | 14 µM (inactive) | 20.9 µM (inactive) | 16.7 µM (inactive) | 23.3 µM (inactive) | 19.7 µM (inactive)
CC1=NC(=Cc2ccccc2O)C(=O)N1n1c(-c2ccccc2)nc2ccccc2c1=O | 62.8 µM (inactive) | 34.5 µM (inactive) | 34.9 µM (inactive) | 39.4 | 32.1 µM (inactive) | 25.6 µM (inactive) | 41.3 µM (inactive) | 51.1 µM (inactive) | 30.3 µM (inactive) | 27.5 µM (inactive) | 40.5 µM (inactive) | 48.5 µM (inactive) | 31 µM (inactive) |  | 39.9 µM (inactive) | 21.5 µM (inactive) | 39.4 µM (inactive) | 38.4 µM (inactive) | 32.4 µM (inactive) | 33.3 µM (inactive)
Cc1ccc([N+](=O)[O-])cc1S(=O)(=O)Nc1ccc(C2=NOC(c3ccco3)C2)cc1 (stereo not drawn) | 15.1 µM (inactive) | 20.1 µM (inactive) | 24.2 µM (inactive) | 10.4 | 24 µM (inactive) | 11.6 µM (inactive) | 6.44 µM (inactive) | 17 µM (inactive) | 18.5 µM (inactive) | 14.9 µM (inactive) | 22.9 µM (inactive) | 18.9 µM (inactive) | 8.73 µM (inactive) | 16 µM (inactive) | 21.9 µM (inactive) | 22.8 µM (inactive) | 31.2 µM (inactive) |  | 22.8 µM (inactive) | 28 µM (inactive)
CC#CC#C/C=C1/O[C@]2(CCC(OC(=O)CC(C)C)CO2)[C@@H]2O[C@H]12 (stereo partly drawn) | > 100 µM (inactive) |  | 28.9 µM (inactive) | 21 | 91.4 µM (inactive) | 33 µM (inactive) | 22.5 µM (inactive) |  | 36.1 µM (inactive) | 29.6 µM (inactive) | 28.2 µM (inactive) | 19.7 µM (inactive) | 21.7 µM (inactive) | 21.6 µM (inactive) | 22.2 µM (inactive) | 20.5 µM (inactive) | 25.7 µM (inactive) | 21.7 µM (inactive) | 18.2 µM (inactive) | > 100 µM (inactive)
Cc1cc(-c2nc3cc(F)c(F)cc3s2)ccc1N | > 100 µM (inactive) | 23.7 µM (inactive) | > 79.8 µM (inactive) | > 61.4 |  | < 0.0123 µM (active) | > 56.6 µM (inactive) |  | > 100 µM (inactive) | 60.7 µM (inactive) | > 53.8 µM (inactive) | > 63.4 µM (inactive) | 58.3 µM (inactive) | > 58.5 µM (inactive) | > 74.6 µM (inactive) | < 0.015 µM (active) | 0.0312 µM (active) | > 45.4 µM (inactive) | > 61.1 µM (inactive) | > 64 µM (inactive)
CN(C)c1ccc(/C=N/n2c(-c3ccccc3)nc3ccccc3c2=O)cc1 | > 100 µM (inactive) | 48.5 µM (inactive) | > 100 µM (inactive) | 27.5 | > 100 µM (inactive) | > 100 µM (inactive) | 43.1 µM (inactive) | 71.6 µM (inactive) | 35.4 µM (inactive) | 47.9 µM (inactive) | > 100 µM (inactive) | 20.4 µM (inactive) |  | 82.2 µM (inactive) | 80.9 µM (inactive) | 15 µM (inactive) | 81.7 µM (inactive) | 63.4 µM (inactive) | 40 µM (inactive) | 80.5 µM (inactive)
